Toxic doses and inconclusive results are not listed. No stated cut-off is given here; in the data, active means T/C of 150% or more; inactive means T/C below 125%.
System: L1210 leukemia ip in BDF1 mice, survival T/C
Test: NCI In Vivo Anticancer Drug Screen. Data for tumor model L1210 Leukemia (intraperitoneal) in B6D2F1 (BDF1) mice
Details: endpoint: mean survival time, vehicle: Klucel (hydroxypropylcellulose) (HPC), higher = longer survival
Method in brief: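 Mice bearing the transplanted tumor received compound or vehicle. Survival of the treated group was divided by that of the vehicle-treated control group to give the ratio.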

Measured: T/C

CN(C)NC(=O)/C=C/c1ccccc1
inactive: dose: 100.0 mg/kg/injection, schedule: Q01DX009 (ip) 112 % of control | dose: 100.0 mg/kg/injection, schedule: Q04DX003 (ip) 94 % of control | dose: 200.0 mg/kg/injection, schedule: Q01DX009 (ip) 102 % of control | dose: 200.0 mg/kg/injection, schedule: Q04DX003 (ip) 100 % of control | dose: 400.0 mg/kg/injection, schedule: Q04DX003 (ip) 87 % of control

From PubChem BioAssay AID248 (DTP/NCI, 2004)
